# Reference: patent publication US11008323B2, “Substituted tricyclic 1,4-benzodiazepinone derivatives as allosteric modulators of group II metabotropic glutamate receptors” (Domain Therapeutics, priority 2015, dated 2021)
# Target: T1, human mGluR3 (hmGluR3) (Homo sapiens, UniProt Q14832)
# T1 construct: expressed in transfected cells; host or cells: HEK-293 cells, transient co-transfection by electroporation
# Assay: Human mGluR3 positive allosteric modulator evaluation using Ca++ functional assay
# Assay type: cell-based
# Details: hmGluR3 transiently over-expressed in HEK-293 cells; stimulated by EC50 glutamate concentration; intracellular Ca2+ (Fluo4AM, FLIPR Tetra)
# Method: Compounds of the present invention were tested successively for their agonist and positive allosteric modulator activities on human mGluR3 (hmGluR3) transiently over-expressed in HEK-293 cells. Compounds exert agonist activity if they are able to activate hmGluR3 by themselves, i.e., in absence of the endogenous agonist glutamate; and they exert positive allosteric modulator activity if they increase the action of the endogenous agonist glutamate.
# HEK-293 cells were maintained in Modified Eagle's Medium supplemented with 10% Foetal Calf Serum, 1% Penicillin/Streptomycin and 1% non-essential amino acids at 37° C./5% CO2.
# Cells were co-transfected by electroporation with four DNA plasmids encoding hmGluR3, a chimeric G protein allowing redirection of the activation signal toward intracellular calcium pathway, and two glutamate transporters so as to decrease extracellular glutamate levels and avoid receptor desensitization (Brabet I et al., Neuropharmacology 37(8), 1043-51, 1998). After transfection, cells were seeded in 75 cm^2 culture flasks, and cultured for 24 h.
# Receptor activity was detected by changes in intracellular calcium measured using the fluorescent Ca^2+ sensitive dye, Fluo4AM (Molecular Probes).
# The day of the assay, medium was aspirated and replaced during 3 hrs by freshly prepared buffer B (HBSS 1×, Hepes 20 mM, MgSO4-7H2O 1 mM, Na2CO3 3.3 mM, CaCl2-2H2O 1.3 mM, 0.5% BSA, Probenecid 2.5 mM). Then, cells were loaded at 37° C./5% CO2 for 1.5 hrs with buffer B containing 1 μM Fluo4AM, 0.1 mg/mL Pluronic Acid, 7 μg/mL Glutamate Pyruvate Transaminase and 2 mM sodium pyruvate. Afterwards cells were washed with buffer B. Cells were then detached from the 75 cm^2 culture flasks with Accutase® (5 min incubation at 37° C.), centrifuged (5 min at 840 rpm), resuspended in buffer B and finally seeded at a density of 30,000 cells/well in black-walled clear-bottom 384-well plates. Addition of compounds on cells and intracellular Ca^2+ measurements (excitation 485 nm, emission 525 nm) were performed by the fluorescence microplate reader FLIPR Tetra (Molecular Devices).
# Agonist and positive allosteric modulator activities of compounds were consecutively evaluated on the same cells plate. Agonist activity was first tested during 10 min with the addition of compound alone on the cells. Then, the cells were stimulated by an EC50 glutamate concentration and fluorescence was recorded for additional 3 min. EC50 glutamate concentration is the concentration giving 50% of the maximal glutamate response. Agonist and/or positive allosteric modulator activity(ies) were evaluated in comparison to basal signal or signal evoked by EC50 glutamate concentration alone, respectively.
# For potency determination, a dose-response test was performed using 20 concentrations of each compound of the invention. Dose-response curves were fitted using the sigmoïdal dose-response (variable slope) analysis in XLfit Scientific Curve Fitting for Excel (IDBS). EC50 of agonist/EC50 of positive allosteric modulator activity(ies) were calculated. Dose-response experiments were all performed in duplicate, two times independently.
# T1 sequence (Q14832 23-879): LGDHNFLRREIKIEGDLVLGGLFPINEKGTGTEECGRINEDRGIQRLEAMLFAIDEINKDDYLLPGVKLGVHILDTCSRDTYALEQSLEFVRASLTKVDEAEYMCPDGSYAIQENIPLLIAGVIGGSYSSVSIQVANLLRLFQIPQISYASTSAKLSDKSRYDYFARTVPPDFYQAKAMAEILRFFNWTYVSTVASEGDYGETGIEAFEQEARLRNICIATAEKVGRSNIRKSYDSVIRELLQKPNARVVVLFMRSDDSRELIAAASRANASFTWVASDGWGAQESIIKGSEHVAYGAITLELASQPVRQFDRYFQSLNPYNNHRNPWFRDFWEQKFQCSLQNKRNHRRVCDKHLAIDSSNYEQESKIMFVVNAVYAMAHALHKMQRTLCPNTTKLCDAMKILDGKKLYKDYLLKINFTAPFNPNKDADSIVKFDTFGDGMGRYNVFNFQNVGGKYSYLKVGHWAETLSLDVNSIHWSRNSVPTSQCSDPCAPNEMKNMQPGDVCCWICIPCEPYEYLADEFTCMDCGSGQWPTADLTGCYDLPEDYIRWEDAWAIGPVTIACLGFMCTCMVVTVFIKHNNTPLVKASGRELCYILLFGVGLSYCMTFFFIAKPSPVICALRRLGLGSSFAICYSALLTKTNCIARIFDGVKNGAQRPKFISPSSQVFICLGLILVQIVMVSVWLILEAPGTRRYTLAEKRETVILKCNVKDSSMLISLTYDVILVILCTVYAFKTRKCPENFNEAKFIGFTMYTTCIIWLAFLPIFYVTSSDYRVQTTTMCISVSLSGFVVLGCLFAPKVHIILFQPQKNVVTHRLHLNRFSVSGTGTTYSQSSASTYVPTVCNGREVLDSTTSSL
row,Structure (SMILES),EC50 [nM]
1,"CN1C(=O)c2cc(Cl)cn2-c2cc(Br)ccc2C12CC2 [Example 5, 9-Bromo-2-chloro-5-methyl-spiro[benzo[f]pyrrolo[1,2-a][1,4]diazepine-6,1′-cyclopropan]-4(5H)-one]",> 1000
2,"CN1C(=O)c2c(Cl)ccn2-c2cc(Br)ccc2C12CC2 [Example 6, 9-Bromo-3-chloro-5-methyl-spiro[benzo[f]pyrrolo[1,2-a][1,4]diazepine-6,1′-cyclopropan]-4(5H)-one]",> 1000
3,"CN1C(=O)c2cccn2-c2cc(Br)cc(F)c2C12CC2 [Example 7, 9-Bromo-7-fluoro-5-methyl-spiro[benzo[f]pyrrolo[1,2-a][1,4]diazepine-6,1′-cyclopropan]-4(5H)-one]",> 1000
4,"CN1C(=O)c2cccn2-c2cc(Br)c(F)cc2C12CC2 [Example 9, 9-Bromo-8-fluoro-5-methyl-spiro[benzo[f]pyrrolo[1,2-a][1,4]diazepine-6,1′-cyclopropan]-4(5H)-one]",> 1000
5,"CN1C(=O)c2cc(-c3ccccc3)nn2-c2cc(Br)ccc2C12CC2 [Example 11, 9-Bromo-5-methyl-2-phenyl-spiro[benzo[f]pyrazolo[1,5-a][1,4]diazepine-6,1′-cyclopropan]-4(5H)-one]",> 1000
6,"CN1C(=O)c2cccn2-c2ccc(Br)cc2C12CC2 [Example 13, 8-Bromo-5-methyl-spiro[benzo[f]pyrrolo[1,2-a][1,4]diazepine-6,1′-cyclopropan]-4(5H)-one]",> 1000
7,"CN1C(=O)c2cc(-c3ccccc3)cn2-c2ccc(Br)cc2C12CC2 [Example 16, 8-Bromo-5-methyl-2-phenyl-spiro[benzo[f]pyrrolo[1,2-a][1,4]diazepine-6,1′-cyclopropan]-4(5H)-one]",> 1000
8,"CCc1ncccc1-c1ccc2c(c1)-n1cccc1C(=O)N(C)C21CC1 [Example 24, 5-Methyl-9-(2-ethylpyridin-3-yl)-spiro[benzo[f]pyrrolo[1,2-a][1,4]diazepine-6,1′-cyclopropan]-4(5H)-one]",100 to 1000
9,"Cc1cc(-c2ccc3c(c2)-n2cccc2C(=O)N(C)C32CC2)ccn1 [Example 26, 5-Methyl-9-(2-methylpyridin-4-yl)-spiro[benzo[f]pyrrolo[1,2-a][1,4]diazepine-6,1′-cyclopropan]-4(5H)-one]",100 to 1000
10,"Cc1cnccc1-c1ccc2c(c1)-n1cccc1C(=O)N(C)C21CC1 [Example 38, 5-Methyl-9-(3-methylpyridin-4-yl)-spiro[benzo[f]pyrrolo[1,2-a][1,4]diazepine-6,1′-cyclopropan]-4(5H)-one]",100 to 1000
11,"CN1C(=O)c2cccn2-c2cc(-c3cnc(N)c(C(F)(F)F)c3)ccc2C12CC2 [Example 40, 5-Methyl-9-(6-amino-5-trifluoromethyl-pyridin-3-yl)-spiro[benzo[f]pyrrolo[1,2-a][1,4]diazepine-6,1′-cyclopropan]-4(5H)-one]",> 1000
12,"CN1C(=O)c2cccn2-c2cc(-c3ccc(N4CCOCC4)nc3)ccc2C12CC2 [Example 42, 5-Methyl-9-(6-morpholin-4-yl-pyridin-3-yl)-spiro[benzo[f]pyrrolo[1,2-a][1,4]diazepine-6,1′-cyclopropan]-4(5H)-one]",100 to 1000
13,"CN1C(=O)c2cccn2-c2cc(-c3ccc(N4CCCCC4)nc3)ccc2C12CC2 [Example 43, 5-Methyl-9-(3,4,5,6-tetrahydro-2H-[1,2′]bipyridinyl-5′-yl)-spiro[benzo[f]pyrrolo[1,2-a][1,4]diazepine-6,1′-cyclopropan]-4(5H)-one]",> 1000
14,"CN1C(=O)c2cccn2-c2cc(C3=CCNCC3)ccc2C12CC2 [Example 46, 5-Methyl-9-(1,2,3,6-tetrahydro-pyridin-4-yl)-spiro[benzo[f]pyrrolo[1,2-a][1,4]diazepine-6,1′-cyclopropan]-4(5H)-one]",> 1000
15,"CN1C(=O)c2cccn2-c2cc(C3=CCN(c4ccncn4)CC3)ccc2C12CC2 [Example 47, 5-Methyl-9-(1-pyrimidin-4-yl-1,2,3,6-tetrahydro-pyridin-4-yl)-spiro[benzo[f]pyrrolo[1,2-a][1,4]diazepine-6,1′-cyclopropan]-4(5H)-one]",100 to 1000
16,"CN1C(=O)c2cccn2-c2cc(-c3cc(F)ccn3)ccc2C12CC2 [Example 57, 5-Methyl-9-(4-fluoropyridin-2-yl)-spiro[benzo[f]pyrrolo[1,2-a][1,4]diazepine-6,1′-cyclopropan]-4(5H)-one]",100 to 1000
17,"Cc1nccnc1-c1ccc2c(c1)-n1cccc1C(=O)N(C)C21CC1 [Example 58, 5-Methyl-9-(3-methyl-pyrazin-2-yl)-5,6-spiro[benzo[f]pyrrolo[1,2-a][1,4]diazepine-6,1′-cyclopropan]-4(5H)-one]",> 1000
18,"Cc1ncncc1-c1ccc2c(c1)-n1cccc1C(=O)N(C)C21CC1 [Example 59, 5-Methyl-9-(4-methyl-pyrimidin-5-yl)-spiro[benzo[f]pyrrolo[1,2-a][1,4]diazepine-6,1′-cyclopropan]-4(5H)-one]",> 1000
19,"CN1C(=O)c2cccn2-c2cc(-c3cccnc3C3CC3)ccc2C12CC2 [Example 62, 5-Methyl-9-(2-cyclopropylpyridin-3-yl)-spiro[benzo[f]pyrrolo[1,2-a][1,4]diazepine-6,1′-cyclopropan]-4(5H)-one]",100 to 1000

# Further lines, results first:
row,EC50 [nM],Structure (SMILES)
1,100 to 1000,"CN1C(=O)c2cccn2-c2cc(Br)ccc2C12CC2 [Example 1, 9-Bromo-5-methyl-spiro[benzo[f]pyrrolo[1,2-a][1,4]diazepine-6,1′-cyclopropan]-4(5H)-one]"
2,100 to 1000,"Cc1ncccc1-c1ccc2c(c1)-n1cc(Br)cc1C(=O)N(C)C21CC1 [Example 17, 2-Bromo-5-methyl-9-(2-methyl-pyridin-3-yl)-spiro[benzo[f]pyrrolo[1,2-a][1,4]diazepine-6,1′-cyclopropan]-4(5H)-one]"
3,< 100,"Cc1ccc(-c2ccc3c(c2)-n2cc(Br)cc2C(=O)N(C)C32CC2)cn1 [Example 18, 2-Bromo-5-methyl-9-(6-methyl-pyridin-3-yl)-spiro[benzo[f]pyrrolo[1,2-a][1,4]diazepine-6,1′-cyclopropan]-4(5H)-one]"
4,100 to 1000,"CCc1ncccc1-c1ccc2c(c1)-n1cc(Br)cc1C(=O)N(C)C21CC1 [Example 19, 2-Bromo-5-methyl-9-(2-ethyl-pyridin-3-yl)-spiro[benzo[f]pyrrolo[1,2-a][1,4]diazepine-6,1′-cyclopropan]-4(5H)-one]"
5,100 to 1000,"CN1C(=O)c2cccn2-c2cc(-c3ccncc3)ccc2C12CC2 [Example 22, 5-Methyl-9-(pyridin-4-yl)-spiro[benzo[f]pyrrolo[1,2-a][1,4]diazepine-6,1′-cyclopropan]-4(5H)-one]"
6,100 to 1000,"CN1C(=O)c2cccn2-c2cc(-c3cccnc3)ccc2C12CC2 [Example 23, 5-Methyl-9-(pyridin-3-yl)-spiro[benzo[f]pyrrolo[1,2-a][1,4]diazepine-6,1′-cyclopropan]-4(5H)-one]"
7,< 100,"Cc1ccc(-c2ccc3c(c2)-n2cccc2C(=O)N(C)C32CC2)cn1 [Example 25, 5-Methyl-9-(6-methylpyridin-3-yl)-spiro[benzo[f]pyrrolo[1,2-a][1,4]diazepine-6,1′-cyclopropan]-4(5H)-one]"
8,< 100,"CN1C(=O)c2cccn2-c2cc(-c3ccc4nccn4c3)ccc2C12CC2 [Example 41, 5-Methyl-9-(imidazo[1,2-a]pyridin-6-yl)-spiro[benzo[f]pyrrolo[1,2-a][1,4]diazepine-6,1′-cyclopropan]-4(5H)-one]"
9,< 100,"CN1C(=O)c2cccn2-c2cc(-c3ccc(Cl)nc3)ccc2C12CC2 [Example 54, 5-Methyl-9-(6-chloropyridin-3-yl)-spiro[benzo[f]pyrrolo[1,2-a][1,4]diazepine-6,1′-cyclopropan]-4(5H)-one]"
10,< 100,"Cc1ccc(-c2ccc3c(c2)-n2cccc2C(=O)N(C)C32CC2)c(C)n1 [Example 56, 5-Methyl-9-(2,6-dimethylpyridin-3-yl)-spiro[benzo[f]pyrrolo[1,2-a][1,4]diazepine-6,1′-cyclopropan]-4(5H)-one]"
11,< 100,"CCCc1ncccc1-c1ccc2c(c1)-n1cccc1C(=O)N(C)C21CC1 [Example 61, 5-Methyl-9-(2-propylpyridin-3-yl)-spiro[benzo[f]pyrrolo[1,2-a][1,4]diazepine-6,1′-cyclopropan]-4(5H)-one]"
